# Measurements taken from publication PMC7093416, “Selective USP7 inhibition elicits cancer cell killing through a p53-dependent mechanism” (Scientific Reports, 2020).
# Read-outs that look alike come from different tables or passages of the source.
# Columns and labels:
# ANXA5 = molecular target: T1, ANXA5 (Homo sapiens, UniProt P08758); test: XL177A-DTB chemoproteomic profiling with XL177A competition, ANXA5; type: binding; details: ANXA5 reporter ion intensity
# T1 construct: endogenous in cells; host or cells: HEK 293AD lysate
# T1 sequence (P08758 1-320): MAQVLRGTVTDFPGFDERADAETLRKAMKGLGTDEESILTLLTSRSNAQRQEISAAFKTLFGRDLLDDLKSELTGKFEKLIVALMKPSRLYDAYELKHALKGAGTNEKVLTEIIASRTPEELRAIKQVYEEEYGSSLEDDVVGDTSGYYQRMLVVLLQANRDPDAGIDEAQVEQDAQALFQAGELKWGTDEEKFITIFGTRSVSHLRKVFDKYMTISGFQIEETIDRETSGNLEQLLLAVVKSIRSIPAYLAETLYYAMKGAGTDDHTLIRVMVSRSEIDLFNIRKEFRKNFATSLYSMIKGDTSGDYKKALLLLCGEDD
# Protocol: HEK 293AD cells were lysed as described above, and the lysate was cleared by centrifugation. Samples were diluted to 10 mg/mL, and 200 μL lysate (2 mg protein total) was incubated with the indicated concentrations of XL177A for 4 hours at RT, then 2 μM of WH114A for 4 additional hours. SDS was added to a final concentration of 1.2% (27.2 μL of a 10% stock), and denatured by heating to 80 °C for 5 minutes. After cooling to RT, 1125 μL 1X PBS was added to dilute the final SDS concentration to 0.2%. 50 μL streptavidin agarose slurry was added to each sample, followed by incubation at RT for 3 hours. After streptavidin enrichment, samples were washed vigorously (2×0.2% SDS, 3x PBS, 3x ddH2O). After the final wash, all supernatant was removed using a flat-bottom tip, and the resin was flash frozen and stored at −80 °C until workup for TMT labeling.
# To remove rapigest, recovered supernatants were acidified with 10% TFA, incubated at 37 °C for 45 minutes, and centrifuged at 14,000 rpm for 15 minutes at 4 °C. Peptides were then desalted by C18, and dried by vacuum centrifugation. Dried peptides were reconstituted in 50 mM pH8.0 TEAB and labeled with TMT reagent at RT for 1 hour. TMT reactions were pooled and treated with hydroxylamine according to the manufacturer’s instructions. Peptide mixtures were then dried, reconstituted in 50 mM ammonium bicarbonate and desalted by SP3[53]. Eluted peptides were then analyzed by nanoflow LC-MS/MS as described[64] with a NanoAcquity UPLC system (Waters, Milford, MA) interfaced to a QExactive HF mass spectrometer (Thermofisher Scientific, San Jose, CA). TMT labeled peptides were injected onto a precolumn (4 cm POROS 10R2, Applied Biosystems, Framingham, MA), resolved on an analytical column (30 µm I.D. × 50 cm packed with 5 µm Monitor C18) and introduced to the mass spectrometer by ESI (spray voltage = 3.5 kV, flow rate ~30 nL/min). The mass spectrometer was operated in data dependent mode such that the 15 most abundant ions in each MS scan (m/z 300–2000, 120 K resolution, target = 3E6, lock mass for 445.120025 enabled) were subjected to MS/MS (m/z 100–2000, 30 K resolution, target = 1E5, max fill time = 100 ms). Dynamic exclusion was selected with a repeat count of 1 and an exclusion time of 30 seconds. MS/MS data was extracted to.mgf using mulitplierz scripts[54],[55] and searched against a forward-reverse human NCBI refseq database using Mascot version 2.6. Search parameters specified fixed carbamidomethylation of cysteine, fixed N-terminal and lysine TMT labelling, and variable oxidation (methionine). Additional multiplierz scripts were used to filter results to 1% FDR and derive protein-level aggregate reporter ion intensities using peptides mapping uniquely into the genome.
# TC32 cells = test: Cell viability (CellTiter-Glo) in TC32 cells expressing sgRNA (TP53-KO vs control); type: cell-based; details: 3 days
# Protocol: Cells were plated in 384-well culture-treated plates and allowed to settle overnight. After drug treament and appropriate incubation time, cell viability was assessed using the CellTiter-Glo Luminescent Cell Viability Assay (Promega). Luminescence was read on a Fluostar Omega Reader (BMG Labtech).
# USP7 = USP7 (Homo sapiens, UniProt Q93009); test: Competitive ABPP with HA-Ub-VS in MCF7 crude cell extracts; type: binding; set-up: endogenous in cells; host or cells: MCF7; details: read-out: IC50 of inhibition of HA-Ub-VS labeling
# Protocol: HA-Ub-VS experiments were performed as previously described in Lamberto et al[29]. Briefly, target engagement lysis buffer (50 mM Tris pH 8.0, 150 mM NaCl, 5 mM MgCl2, 0.5 mM EDTA, 0.5% NP-40, 10% glycerol, 1 mM TCEP, protease and phosphatase inhibitors) was added to cell pellets on ice. Lysate was cleared by centrifugation and diluted to 1.67 mg/mL. Where indicated, 30 μL lysate was then incubated with inhibitors or DMSO for the indicated timepoints. 1 μM HA-Ub-VS was then added to the lysate and incubated at RT for the indicated time points. Labeling reactions were quenched with 4x LDS sample buffer (Thermo Fisher B0007) supplemented with 10% BME, vortexed vigorously, and heated to 95 C for 5 minutes. Samples were resolved by SDS-PAGE and analyzed by Western blot with the indicated antibodies.
# [1] = XL177A-DTB pulldown, HEK293AD lysate pre-treated 100nM XL177A
# [2] = XL177A-DTB pulldown, HEK293AD lysate pre-treated 1uM XL177A
# [3] = XL177A-DTB pulldown, HEK293AD lysate pre-treated 10uM XL177A
# [4] = average of Run 1 and Run 2, 100nM XL177A
# [5] = average of Run 1 and Run 2, 1uM XL177A
# [6] = average of Run 1 and Run 2, 10uM XL177A
# Chain of USP7 (Q93009 whole entry): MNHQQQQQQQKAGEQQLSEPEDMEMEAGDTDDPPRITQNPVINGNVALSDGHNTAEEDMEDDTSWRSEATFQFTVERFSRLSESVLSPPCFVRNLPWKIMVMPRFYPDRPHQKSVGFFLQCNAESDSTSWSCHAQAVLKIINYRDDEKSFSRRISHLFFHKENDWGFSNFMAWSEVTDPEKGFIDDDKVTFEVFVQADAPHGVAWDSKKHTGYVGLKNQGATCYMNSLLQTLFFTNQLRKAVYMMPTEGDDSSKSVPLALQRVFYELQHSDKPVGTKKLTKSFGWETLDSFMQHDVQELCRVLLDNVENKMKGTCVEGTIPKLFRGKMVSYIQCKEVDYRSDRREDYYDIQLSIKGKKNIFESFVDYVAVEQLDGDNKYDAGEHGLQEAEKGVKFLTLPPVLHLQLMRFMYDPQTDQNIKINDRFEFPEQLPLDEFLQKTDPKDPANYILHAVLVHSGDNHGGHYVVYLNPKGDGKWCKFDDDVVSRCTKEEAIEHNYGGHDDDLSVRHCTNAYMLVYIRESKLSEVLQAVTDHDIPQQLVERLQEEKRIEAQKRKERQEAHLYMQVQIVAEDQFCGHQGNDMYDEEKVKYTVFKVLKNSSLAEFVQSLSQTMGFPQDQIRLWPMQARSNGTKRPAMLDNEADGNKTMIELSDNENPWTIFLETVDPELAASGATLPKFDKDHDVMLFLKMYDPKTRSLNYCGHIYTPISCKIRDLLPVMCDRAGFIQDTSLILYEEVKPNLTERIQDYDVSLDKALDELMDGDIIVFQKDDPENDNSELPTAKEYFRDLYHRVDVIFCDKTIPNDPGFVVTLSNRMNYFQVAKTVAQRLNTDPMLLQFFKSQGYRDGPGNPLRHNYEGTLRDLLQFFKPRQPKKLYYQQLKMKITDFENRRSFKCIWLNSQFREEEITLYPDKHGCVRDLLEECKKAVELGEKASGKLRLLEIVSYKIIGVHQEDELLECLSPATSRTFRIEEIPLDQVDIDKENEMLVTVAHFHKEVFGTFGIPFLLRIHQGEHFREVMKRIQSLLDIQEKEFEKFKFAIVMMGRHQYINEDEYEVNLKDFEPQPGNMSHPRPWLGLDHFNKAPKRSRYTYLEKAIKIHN
structure (smiles),measurement,setting,value
CN1CCN(CCC(=O)Nc2ccc3c(=O)n(CC4(O)CCN(C(=O)[C@@H](CCCNC(=O)c5ccc6c(Cl)c7c(nc6c5)CCCC7)Cc5ccccc5)CC4)cnc3c2)CC1 [XL177A],Run 1 100nM 1,ANXA5; [1],178152
same,Run 1 100nM 2,ANXA5; [1],165955
same,Run 1 100nM 3,ANXA5; [1],128000
same,Run 2 100nM 1,ANXA5; [1],93111
same,Run 2 100nM 2,ANXA5; [1],89444
same,Run 2 100nM 3,ANXA5; [1],79751
same,Run 1 1uM 1,ANXA5; [2],144604
same,Run 1 1uM 2,ANXA5; [2],674321
same,Run 1 1uM 3,ANXA5; [2],223998
same,Run 2 1uM 1,ANXA5; [2],92176
same,Run 2 1uM 2,ANXA5; [2],333280
same,Run 2 1uM 3,ANXA5; [2],123099
same,Run 1 10uM 1,ANXA5; [3],147137
same,Run 1 10uM 2,ANXA5; [3],166473
same,Run 2 10uM 1,ANXA5; [3],88314
same,Run 2 10uM 2,ANXA5; [3],102591
same,AVE 100nM 1,ANXA5; [4],135632
same,AVE 100nM 2,ANXA5; [4],127700
same,AVE 100nM 3,ANXA5; [4],103876
same,AVE 1uM 1,ANXA5; [5],118390
same,AVE 1uM 2,ANXA5; [5],503800
same,AVE 1uM 3,ANXA5; [5],173548
same,AVE 10uM 1,ANXA5; [6],117726
same,AVE 10uM 2,ANXA5; [6],134532
same,effect of TP53 KO on growth suppression,TC32 cells,completely rescued TC32 growth except at high doses
same,IC50,USP7; 30 min preincubation,0.085 µM
same,IC50,USP7; 4 hr preincubation,0.008 µM
